Measurements from publication PMC7385619, “A triple action CDK4/6-PI3K-BET inhibitor with augmented cancer cell cytotoxicity” (Cell Discovery, 2020).

What was measured:
Test in all cases: KINOMEscan assay (Eurofins DiscoverX)
Format in all cases: binding
kinome (kinase panel) [1] = molecular target: T1, kinome (kinase panel) (Homo sapiens, UniProt P08581, Y1235D); details: […]; 1000 nM; read-out: Percent Control
T1 construct: purchased Eurofins DiscoverX

kinome (kinase panel) [2] = molecular target: T2, kinome (kinase panel) (Homo sapiens, UniProt Q8IVH8); details: MAP4K3; 1000 nM; read-out: Percent Control
T2 construct: purchased Eurofins DiscoverX
T2 sequence (Q8IVH8 whole entry): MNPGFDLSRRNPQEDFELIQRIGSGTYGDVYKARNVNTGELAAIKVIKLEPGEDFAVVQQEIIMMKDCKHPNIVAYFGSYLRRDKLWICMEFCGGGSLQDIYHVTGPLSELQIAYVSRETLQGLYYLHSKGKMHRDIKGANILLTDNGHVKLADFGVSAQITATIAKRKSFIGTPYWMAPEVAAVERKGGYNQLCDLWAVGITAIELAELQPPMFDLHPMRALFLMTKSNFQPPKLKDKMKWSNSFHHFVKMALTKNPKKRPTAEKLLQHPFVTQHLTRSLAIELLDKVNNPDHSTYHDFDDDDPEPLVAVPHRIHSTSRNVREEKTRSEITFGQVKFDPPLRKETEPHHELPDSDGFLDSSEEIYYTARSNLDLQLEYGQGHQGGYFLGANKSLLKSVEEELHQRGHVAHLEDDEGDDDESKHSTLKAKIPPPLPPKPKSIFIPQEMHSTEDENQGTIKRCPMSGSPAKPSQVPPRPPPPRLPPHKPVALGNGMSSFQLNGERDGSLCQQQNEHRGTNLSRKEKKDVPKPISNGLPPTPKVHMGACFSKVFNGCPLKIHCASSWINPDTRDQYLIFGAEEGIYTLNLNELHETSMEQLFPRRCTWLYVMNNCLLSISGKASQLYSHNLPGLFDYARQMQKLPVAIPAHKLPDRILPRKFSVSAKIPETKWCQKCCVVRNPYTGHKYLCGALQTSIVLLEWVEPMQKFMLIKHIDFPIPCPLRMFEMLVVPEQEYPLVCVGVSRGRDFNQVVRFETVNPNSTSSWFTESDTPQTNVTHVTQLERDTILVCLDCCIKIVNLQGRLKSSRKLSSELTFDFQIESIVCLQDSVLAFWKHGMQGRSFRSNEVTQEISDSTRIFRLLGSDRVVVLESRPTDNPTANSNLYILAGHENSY

kinome (kinase panel) [3] = molecular target: T3, kinome (kinase panel) (Homo sapiens, UniProt P15735); details: PHKG2; 1000 nM; read-out: Percent Control
T3 construct: purchased Eurofins DiscoverX

kinome (kinase panel) [4] = molecular target: T4, kinome (kinase panel) (Mycobacterium tuberculosis, UniProt P9WI81); details: PKNB(M.tuberculosis) (Entrez pknB); 1000 nM; read-out: Percent Control
T4 construct: purchased Eurofins DiscoverX

kinome (kinase panel) [5] = molecular target: T5, kinome (kinase panel) (Homo sapiens, UniProt O00238); details: BMPR1B; 1000 nM; read-out: Percent Control
T5 construct: purchased Eurofins DiscoverX
T5 sequence (O00238 14-502): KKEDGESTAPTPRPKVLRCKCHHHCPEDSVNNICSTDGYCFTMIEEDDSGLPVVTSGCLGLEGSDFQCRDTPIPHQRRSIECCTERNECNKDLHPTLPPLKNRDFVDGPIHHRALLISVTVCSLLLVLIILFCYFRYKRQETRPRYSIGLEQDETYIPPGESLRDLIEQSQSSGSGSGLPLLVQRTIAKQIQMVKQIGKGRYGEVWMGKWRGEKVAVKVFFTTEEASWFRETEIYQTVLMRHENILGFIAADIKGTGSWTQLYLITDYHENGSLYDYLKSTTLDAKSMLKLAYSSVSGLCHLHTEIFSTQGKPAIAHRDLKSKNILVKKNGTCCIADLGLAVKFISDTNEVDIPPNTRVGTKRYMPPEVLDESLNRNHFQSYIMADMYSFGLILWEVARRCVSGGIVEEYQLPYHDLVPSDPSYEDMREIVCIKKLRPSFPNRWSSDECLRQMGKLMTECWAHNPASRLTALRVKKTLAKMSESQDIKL

kinome (kinase panel) [6] = molecular target: T6, kinome (kinase panel) (Homo sapiens, UniProt Q13464); details: ROCK1; 1000 nM; read-out: Percent Control
T6 construct: purchased Eurofins DiscoverX

kinome (kinase panel) [7] = molecular target: T7, kinome (kinase panel) (Homo sapiens, UniProt Q16832); details: DDR2; 1000 nM; read-out: Percent Control
T7 construct: purchased Eurofins DiscoverX

kinome (kinase panel) [8] = molecular target: T8, kinome (kinase panel) (Homo sapiens, UniProt P00533, L858R); details: […]; 1000 nM; read-out: Percent Control
T8 construct: purchased Eurofins DiscoverX

kinome (kinase panel) [9] = molecular target: T9, kinome (kinase panel) (Homo sapiens, UniProt Q9NQU5); details: PAK6; 1000 nM; read-out: Percent Control
T9 construct: purchased Eurofins DiscoverX

kinome (kinase panel) [10] = molecular target: T10, kinome (kinase panel) (Homo sapiens, UniProt Q86Z02); details: HIPK1; 1000 nM; read-out: Percent Control
T10 construct: purchased Eurofins DiscoverX

kinome (kinase panel) [11] = molecular target: T11, kinome (kinase panel) (Homo sapiens, UniProt Q15569); details: TESK1; 1000 nM; read-out: Percent Control
T11 construct: purchased Eurofins DiscoverX

kinome (kinase panel) [12] = molecular target: T12, kinome (kinase panel) (Homo sapiens, UniProt Q13153); details: PAK1; 1000 nM; read-out: Percent Control
T12 construct: purchased Eurofins DiscoverX

kinome (kinase panel) [13] = molecular target: T13, kinome (kinase panel) (Homo sapiens, UniProt P30291); details: WEE1; 1000 nM; read-out: Percent Control
T13 construct: purchased Eurofins DiscoverX

kinome (kinase panel) [14] = molecular target: T14, kinome (kinase panel) (Homo sapiens, UniProt O43283); details: LZK (Entrez MAP3K13); 1000 nM; read-out: Percent Control
T14 construct: purchased Eurofins DiscoverX

kinome (kinase panel) [15] = molecular target: T15, kinome (kinase panel) (Homo sapiens, UniProt P22607); details: FGFR3; 1000 nM; read-out: Percent Control
T15 construct: purchased Eurofins DiscoverX
T15 sequence (P22607 23-806): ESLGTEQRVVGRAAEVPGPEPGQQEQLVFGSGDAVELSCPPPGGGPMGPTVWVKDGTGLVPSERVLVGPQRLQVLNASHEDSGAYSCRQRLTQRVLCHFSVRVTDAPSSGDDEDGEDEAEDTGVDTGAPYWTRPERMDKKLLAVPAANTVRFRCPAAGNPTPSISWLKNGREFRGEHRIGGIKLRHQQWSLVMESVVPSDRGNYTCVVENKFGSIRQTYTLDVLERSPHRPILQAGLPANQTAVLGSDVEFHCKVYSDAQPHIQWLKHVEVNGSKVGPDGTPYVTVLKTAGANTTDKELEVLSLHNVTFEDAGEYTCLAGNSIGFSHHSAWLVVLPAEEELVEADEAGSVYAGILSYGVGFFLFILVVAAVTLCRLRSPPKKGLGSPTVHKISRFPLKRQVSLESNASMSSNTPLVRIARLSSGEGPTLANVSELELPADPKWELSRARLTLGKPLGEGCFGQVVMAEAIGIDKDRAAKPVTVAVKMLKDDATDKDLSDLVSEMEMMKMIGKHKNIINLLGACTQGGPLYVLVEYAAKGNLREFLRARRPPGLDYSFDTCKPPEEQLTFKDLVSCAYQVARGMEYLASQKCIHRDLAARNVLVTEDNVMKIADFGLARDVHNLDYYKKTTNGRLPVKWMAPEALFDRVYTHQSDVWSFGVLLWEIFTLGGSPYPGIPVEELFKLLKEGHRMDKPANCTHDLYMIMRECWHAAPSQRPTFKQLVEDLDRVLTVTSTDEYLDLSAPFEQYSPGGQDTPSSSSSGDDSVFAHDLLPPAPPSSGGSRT

kinome (kinase panel) [16] = molecular target: T16, kinome (kinase panel) (Homo sapiens, UniProt Q8NFD2); details: ANKK1; 1000 nM; read-out: Percent Control
T16 construct: purchased Eurofins DiscoverX

kinome (kinase panel) [17] = molecular target: T17, kinome (kinase panel) (Homo sapiens, UniProt O60285); details: ARK5 (Entrez NUAK1); 1000 nM; read-out: Percent Control
T17 construct: purchased Eurofins DiscoverX

kinome (kinase panel) [18] = molecular target: T18, kinome (kinase panel) (Homo sapiens, UniProt P78368); details: CSNK1G2; 1000 nM; read-out: Percent Control
T18 construct: purchased Eurofins DiscoverX

kinome (kinase panel) [19] = molecular target: T19, kinome (kinase panel) (Plasmodium falciparum, UniProt P62344); details: PFCDPK1(P.falciparum) (Entrez CDPK1); 1000 nM; read-out: Percent Control
T19 construct: purchased Eurofins DiscoverX

kinome (kinase panel) [20] = molecular target: T20, kinome (kinase panel) (Homo sapiens, UniProt P06213); details: INSR; 1000 nM; read-out: Percent Control
T20 construct: purchased Eurofins DiscoverX

kinome (kinase panel) [21] = molecular target: T21, kinome (kinase panel) (Homo sapiens, UniProt Q16288); details: TRKC (NTRK3); 1000 nM; read-out: Percent Control
T21 construct: purchased Eurofins DiscoverX

kinome (kinase panel) [22] = molecular target: T22, kinome (kinase panel) (Homo sapiens, UniProt Q08881); details: ITK; 1000 nM; read-out: Percent Control
T22 construct: purchased Eurofins DiscoverX
T22 sequence (Q08881 whole entry): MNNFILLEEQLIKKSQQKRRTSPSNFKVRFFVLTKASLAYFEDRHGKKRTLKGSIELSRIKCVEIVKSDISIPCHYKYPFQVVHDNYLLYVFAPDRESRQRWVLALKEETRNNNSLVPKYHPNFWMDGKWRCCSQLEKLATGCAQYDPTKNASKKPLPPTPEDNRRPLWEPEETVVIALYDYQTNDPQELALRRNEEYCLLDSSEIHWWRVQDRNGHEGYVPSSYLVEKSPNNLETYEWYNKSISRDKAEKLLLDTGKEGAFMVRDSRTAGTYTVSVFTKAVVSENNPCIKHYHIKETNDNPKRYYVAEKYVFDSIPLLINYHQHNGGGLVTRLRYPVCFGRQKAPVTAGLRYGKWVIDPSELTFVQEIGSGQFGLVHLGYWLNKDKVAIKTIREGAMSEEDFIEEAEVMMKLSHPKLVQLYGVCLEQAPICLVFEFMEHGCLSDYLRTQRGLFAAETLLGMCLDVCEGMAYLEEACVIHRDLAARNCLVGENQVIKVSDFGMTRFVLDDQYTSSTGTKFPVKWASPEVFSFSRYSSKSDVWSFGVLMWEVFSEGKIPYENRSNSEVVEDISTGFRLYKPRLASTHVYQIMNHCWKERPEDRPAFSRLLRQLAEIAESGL

kinome (kinase panel) [23] = molecular target: T23, kinome (kinase panel) (Homo sapiens, UniProt Q9BUB5); details: MKNK1; 1000 nM; read-out: Percent Control
T23 construct: purchased Eurofins DiscoverX

kinome (kinase panel) [24] = molecular target: T24, kinome (kinase panel) (Homo sapiens, UniProt Q8WTQ7); details: GRK7; 1000 nM; read-out: Percent Control
T24 construct: purchased Eurofins DiscoverX

kinome (kinase panel) [25] = molecular target: T25, kinome (kinase panel) (Homo sapiens, UniProt P53350); details: PLK1; 1000 nM; read-out: Percent Control
T25 construct: purchased Eurofins DiscoverX

kinome (kinase panel) [26] = molecular target: T26, kinome (kinase panel) (Homo sapiens, UniProt P00533, DEL746-750); details: EGFR(E746-A750del); 1000 nM; read-out: Percent Control
T26 construct: purchased Eurofins DiscoverX

kinome (kinase panel) [27] = molecular target: T27, kinome (kinase panel) (Homo sapiens, UniProt P15056, V600E); details: […]; 1000 nM; read-out: Percent Control
T27 construct: purchased Eurofins DiscoverX

kinome (kinase panel) [28] = molecular target: T28, kinome (kinase panel) (Homo sapiens, UniProt P00533, G719C); details: […]; 1000 nM; read-out: Percent Control
T28 construct: purchased Eurofins DiscoverX

kinome (kinase panel) [29] = molecular target: T29, kinome (kinase panel) (Homo sapiens, UniProt Q13555); details: CAMK2G; 1000 nM; read-out: Percent Control
T29 construct: purchased Eurofins DiscoverX

kinome (kinase panel) [30] = molecular target: T30, kinome (kinase panel) (Homo sapiens, UniProt P04629); details: TRKA (NTRK1); 1000 nM; read-out: Percent Control
T30 construct: purchased Eurofins DiscoverX
T30 sequence (P04629 33-796): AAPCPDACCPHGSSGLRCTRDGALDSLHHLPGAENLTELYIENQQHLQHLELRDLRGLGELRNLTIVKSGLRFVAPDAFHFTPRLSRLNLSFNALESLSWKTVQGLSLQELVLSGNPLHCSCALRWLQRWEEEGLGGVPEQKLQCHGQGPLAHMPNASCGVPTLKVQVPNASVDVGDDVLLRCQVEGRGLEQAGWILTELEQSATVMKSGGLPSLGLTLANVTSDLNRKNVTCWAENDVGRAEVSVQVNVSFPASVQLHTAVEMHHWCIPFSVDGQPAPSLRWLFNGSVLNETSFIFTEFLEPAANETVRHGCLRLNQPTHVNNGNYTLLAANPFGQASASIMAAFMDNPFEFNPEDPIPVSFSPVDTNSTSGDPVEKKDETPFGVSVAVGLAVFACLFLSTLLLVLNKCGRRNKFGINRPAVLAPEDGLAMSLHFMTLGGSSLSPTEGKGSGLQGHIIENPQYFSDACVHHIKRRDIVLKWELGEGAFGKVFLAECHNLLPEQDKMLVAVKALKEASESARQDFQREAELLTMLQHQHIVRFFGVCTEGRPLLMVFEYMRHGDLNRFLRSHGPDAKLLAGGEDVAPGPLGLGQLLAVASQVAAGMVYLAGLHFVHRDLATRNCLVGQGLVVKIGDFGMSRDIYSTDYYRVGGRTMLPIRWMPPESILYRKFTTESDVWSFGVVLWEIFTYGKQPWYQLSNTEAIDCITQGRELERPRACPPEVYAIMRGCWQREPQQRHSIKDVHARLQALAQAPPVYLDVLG

kinome (kinase panel) [31] = molecular target: T31, kinome (kinase panel) (Homo sapiens, UniProt Q86V86); details: PIM3; 1000 nM; read-out: Percent Control
T31 construct: purchased Eurofins DiscoverX

kinome (kinase panel) [32] = molecular target: T32, kinome (kinase panel) (Homo sapiens, UniProt Q86UX6); details: YANK3 (STK32C); 1000 nM; read-out: Percent Control
T32 construct: purchased Eurofins DiscoverX

kinome (kinase panel) [33] = molecular target: T33, kinome (kinase panel) (Homo sapiens, UniProt Q13233); details: MAP3K1; 1000 nM; read-out: Percent Control
T33 construct: purchased Eurofins DiscoverX

T1 sequence (P08581 25-1390 Y1235D): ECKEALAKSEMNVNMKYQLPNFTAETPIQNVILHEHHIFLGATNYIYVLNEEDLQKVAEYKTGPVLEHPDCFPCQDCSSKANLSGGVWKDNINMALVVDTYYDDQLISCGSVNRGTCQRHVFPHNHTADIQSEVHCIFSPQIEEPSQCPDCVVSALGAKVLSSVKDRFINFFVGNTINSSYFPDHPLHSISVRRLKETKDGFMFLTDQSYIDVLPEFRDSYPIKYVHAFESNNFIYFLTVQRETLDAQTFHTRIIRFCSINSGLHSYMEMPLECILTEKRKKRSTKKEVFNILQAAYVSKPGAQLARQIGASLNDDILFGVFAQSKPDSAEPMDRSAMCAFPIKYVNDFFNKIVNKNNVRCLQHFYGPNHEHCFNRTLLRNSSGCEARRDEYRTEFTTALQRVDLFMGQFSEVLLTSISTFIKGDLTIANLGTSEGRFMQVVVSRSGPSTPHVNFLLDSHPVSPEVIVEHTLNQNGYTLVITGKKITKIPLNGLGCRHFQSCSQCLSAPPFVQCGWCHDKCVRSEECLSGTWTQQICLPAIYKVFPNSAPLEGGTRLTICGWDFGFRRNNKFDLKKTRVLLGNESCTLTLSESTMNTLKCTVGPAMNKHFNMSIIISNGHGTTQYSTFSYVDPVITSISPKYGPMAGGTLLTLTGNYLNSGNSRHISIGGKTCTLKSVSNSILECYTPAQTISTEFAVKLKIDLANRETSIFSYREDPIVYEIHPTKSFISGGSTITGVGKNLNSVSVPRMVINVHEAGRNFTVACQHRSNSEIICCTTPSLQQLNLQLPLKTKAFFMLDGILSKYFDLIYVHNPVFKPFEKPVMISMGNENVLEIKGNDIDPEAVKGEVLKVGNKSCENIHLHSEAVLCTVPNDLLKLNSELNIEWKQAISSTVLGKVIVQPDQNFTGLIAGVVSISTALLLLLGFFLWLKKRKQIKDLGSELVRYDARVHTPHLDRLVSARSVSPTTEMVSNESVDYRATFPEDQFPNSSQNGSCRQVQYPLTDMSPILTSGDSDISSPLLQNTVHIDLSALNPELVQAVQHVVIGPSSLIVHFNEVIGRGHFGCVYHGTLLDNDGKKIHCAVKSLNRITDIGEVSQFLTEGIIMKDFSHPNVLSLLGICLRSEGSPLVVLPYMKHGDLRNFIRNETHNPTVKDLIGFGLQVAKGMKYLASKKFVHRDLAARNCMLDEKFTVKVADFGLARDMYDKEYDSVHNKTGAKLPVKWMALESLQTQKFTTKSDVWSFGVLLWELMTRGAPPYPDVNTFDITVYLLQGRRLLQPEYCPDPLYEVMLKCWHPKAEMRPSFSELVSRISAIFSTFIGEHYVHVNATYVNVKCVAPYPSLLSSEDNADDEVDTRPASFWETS

In the case of CN(C)C(=O)c1cc2cnc(Nc3ccc(-c4csc5c(=O)cc(N6CCOCC6)oc45)cc3)nc2n1C1CCCC1 [SRX3177], the remaining binding at 1 µM (kinome (kinase panel) [1]) is reported as 100%, the remaining binding at 1 µM (kinome (kinase panel) [2]) is reported as 100% and the remaining binding at 1 µM (kinome (kinase panel) [3]) is reported as 97%. For the same compound, the remaining binding at 1 µM (kinome (kinase panel) [4]) was 40%, the remaining binding at 1 µM (kinome (kinase panel) [5]) was 19% and the remaining binding at 1 µM (kinome (kinase panel) [6]) was 87%. For the same compound, the remaining binding at 1 µM (kinome (kinase panel) [7]) was 56%, the remaining binding at 1 µM (kinome (kinase panel) [8]) was 100% and the remaining binding at 1 µM (kinome (kinase panel) [9]) was 100%. For the same compound, the remaining binding at 1 µM (kinome (kinase panel) [10]) was 86%, the remaining binding at 1 µM (kinome (kinase panel) [11]) was 87% and the remaining binding at 1 µM (kinome (kinase panel) [12]) was 90%. The remaining binding at 1 µM (kinome (kinase panel) [13]) was 99%, the remaining binding at 1 µM (kinome (kinase panel) [14]) was 48% and the remaining binding at 1 µM (kinome (kinase panel) [15]) was 71%. The remaining binding at 1 µM (kinome (kinase panel) [16]) was 50%, the remaining binding at 1 µM (kinome (kinase panel) [17]) was 86% and the remaining binding at 1 µM (kinome (kinase panel) [18]) was 96%. The remaining binding at 1 µM (kinome (kinase panel) [19]) was 71%, the remaining binding at 1 µM (kinome (kinase panel) [20]) was 47% and the remaining binding at 1 µM (kinome (kinase panel) [21]) was 37%. For the same compound, the remaining binding at 1 µM (kinome (kinase panel) [22]) was 90%, the remaining binding at 1 µM (kinome (kinase panel) [23]) was 42% and the remaining binding at 1 µM (kinome (kinase panel) [24]) was 100%. For the same compound, the remaining binding at 1 µM (kinome (kinase panel) [25]) was 75%, the remaining binding at 1 µM (kinome (kinase panel) [26]) was 72% and the remaining binding at 1 µM (kinome (kinase panel) [27]) was 64%. The remaining binding at 1 µM (kinome (kinase panel) [28]) was 79%, the remaining binding at 1 µM (kinome (kinase panel) [29]) was 65% and the remaining binding at 1 µM (kinome (kinase panel) [30]) was 1.1%. It also gave a remaining binding at 1 µM (kinome (kinase panel) [31]) of 78%, a remaining binding at 1 µM (kinome (kinase panel) [32]) of 91% and a remaining binding at 1 µM (kinome (kinase panel) [33]) of 40%.
